Tested on: kidney tissue of g-ddY mice
Experiment: IPA upstream regulator analysis, g-ddY kidney RNA-seq
Details: 30 mg/kg/day
[1] = ligand-dependent nuclear receptor

- ERG Activation z-score (transcription regulator): −3.672
- ERG Predicted Activation State (transcription regulator): Inhibited
SMILES: CCCCN(CCCC)C(=O)CN1C[C@H](c2ccc3c(c2)OCO3)[C@@H](C(=O)O)[C@@H]1c1ccc(OC)cc1 [atrasentan, (2R,3R,4S)-4-(1,3-benzodioxol-5-yl)-1-[2-(dibutylamino)-2-oxoethyl]-2-(4-methoxyphenyl)pyrrolidine-3-carboxylic acid]
- AHR Activation z-score [1]: 2.092
- AHR Predicted Activation State [1]: Activated
- ESR1 Activation z-score [1]: −2.439
- ESR1 Predicted Activation State [1]: Inhibited
- ESRRA Activation z-score [1]: 2.517
- ESRRA Predicted Activation State [1]: Activated
- NR3C2 Activation z-score [1]: −2.191
- NR3C2 Predicted Activation State [1]: Inhibited
- NR4A1 Activation z-score [1]: −2.488
- NR4A1 Predicted Activation State [1]: Inhibited
- PPARA Activation z-score [1]: 3.182
- PPARA Predicted Activation State [1]: Activated
- PPARG Activation z-score [1]: 3.581
- PPARG Predicted Activation State [1]: Activated
- RXRA Activation z-score [1]: 2.96
- RXRA Predicted Activation State [1]: Activated
- ARNT2 Activation z-score (transcription regulator): −2.079
- ARNT2 Predicted Activation State (transcription regulator): Inhibited
- BCL6 Activation z-score (transcription regulator): 2.514
- BCL6 Predicted Activation State (transcription regulator): Activated
- CBX5 Activation z-score (transcription regulator): 2.355
- CBX5 Predicted Activation State (transcription regulator): Activated
- CCND1 Activation z-score (transcription regulator): −3.003
- CCND1 Predicted Activation State (transcription regulator): Inhibited
- CEBPD Activation z-score (transcription regulator): −2.154
- CEBPD Predicted Activation State (transcription regulator): Inhibited
- CTNNB1 Activation z-score (transcription regulator): −3.373
- CTNNB1 Predicted Activation State (transcription regulator): Inhibited
- DACH1 Activation z-score (transcription regulator): 2.354
- DACH1 Predicted Activation State (transcription regulator): Activated
- ECSIT Activation z-score (transcription regulator): −2.72
- ECSIT Predicted Activation State (transcription regulator): Inhibited
- EGR1 Activation z-score (transcription regulator): −2.766
- EGR1 Predicted Activation State (transcription regulator): Inhibited
- ELK1 Activation z-score (transcription regulator): −2.151
- ELK1 Predicted Activation State (transcription regulator): Inhibited
- ETS1 Activation z-score (transcription regulator): −2.096
- ETS1 Predicted Activation State (transcription regulator): Inhibited
- FEV Activation z-score (transcription regulator): −3.651
- FEV Predicted Activation State (transcription regulator): Inhibited
- FOXC1 Activation z-score (transcription regulator): −2.563
- FOXC1 Predicted Activation State (transcription regulator): Inhibited
- FOXC2 Activation z-score (transcription regulator): −3.361
- FOXC2 Predicted Activation State (transcription regulator): Inhibited
- FOXF1 Activation z-score (transcription regulator): −2.253
- FOXF1 Predicted Activation State (transcription regulator): Inhibited
- FOXL2 Activation z-score (transcription regulator): −3.108
- FOXL2 Predicted Activation State (transcription regulator): Inhibited
- FOXM1 Activation z-score (transcription regulator): −2.307
- FOXM1 Predicted Activation State (transcription regulator): Inhibited
- FOXO3 Activation z-score (transcription regulator): 2.338
- FOXO3 Predicted Activation State (transcription regulator): Activated
- GATA1 Activation z-score (transcription regulator): −3.309
- GATA1 Predicted Activation State (transcription regulator): Inhibited
- GFI1 Activation z-score (transcription regulator): 2.82
- GFI1 Predicted Activation State (transcription regulator): Activated
- GPS2 Activation z-score (transcription regulator): 2.51
- GPS2 Predicted Activation State (transcription regulator): Activated
- HIF1A Activation z-score (transcription regulator): −2.042
- HIF1A Predicted Activation State (transcription regulator): Inhibited
- HNF1A Activation z-score (transcription regulator): 4.107
- HNF1A Predicted Activation State (transcription regulator): Activated
- HNF1B Activation z-score (transcription regulator): 2.944
- HNF1B Predicted Activation State (transcription regulator): Activated
- HNF4A Activation z-score (transcription regulator): 4.856
- HNF4A Predicted Activation State (transcription regulator): Activated
- HOXC6 Activation z-score (transcription regulator): −2.35
- HOXC6 Predicted Activation State (transcription regulator): Inhibited
- IKZF1 Activation z-score (transcription regulator): 3.472
- IKZF1 Predicted Activation State (transcription regulator): Activated
- IKZF3 Activation z-score (transcription regulator): 3.165
- IKZF3 Predicted Activation State (transcription regulator): Activated
- IRF7 Activation z-score (transcription regulator): −4.492
- IRF7 Predicted Activation State (transcription regulator): Inhibited
- IRF8 Activation z-score (transcription regulator): −2.577
- IRF8 Predicted Activation State (transcription regulator): Inhibited
- JUNB Activation z-score (transcription regulator): −3.721
- JUNB Predicted Activation State (transcription regulator): Inhibited
- KDM5A Activation z-score (transcription regulator): −5.858
- KDM5A Predicted Activation State (transcription regulator): Inhibited
- KLF2 Activation z-score (transcription regulator): 2.742
- KLF2 Predicted Activation State (transcription regulator): Activated
- KLF4 Activation z-score (transcription regulator): −3.94
- KLF4 Predicted Activation State (transcription regulator): Inhibited
- KLF15 Activation z-score (transcription regulator): 3.401
- KLF15 Predicted Activation State (transcription regulator): Activated
- KMT2A Activation z-score (transcription regulator): −2.246
- KMT2A Predicted Activation State (transcription regulator): Inhibited
- LHX1 Activation z-score (transcription regulator): 4.214
- LHX1 Predicted Activation State (transcription regulator): Activated
- MECP2 Activation z-score (transcription regulator): −2.419
- MECP2 Predicted Activation State (transcription regulator): Inhibited
- MEF2D Activation z-score (transcription regulator): −3.056
- MEF2D Predicted Activation State (transcription regulator): Inhibited
- MEOX2 Activation z-score (transcription regulator): 2.54
- MEOX2 Predicted Activation State (transcription regulator): Activated
- MESP1 Activation z-score (transcription regulator): −2.646
- MESP1 Predicted Activation State (transcription regulator): Inhibited
- MESP2 Activation z-score (transcription regulator): −2.449
- MESP2 Predicted Activation State (transcription regulator): Inhibited
- MLXIPL Activation z-score (transcription regulator): 2.871
- MLXIPL Predicted Activation State (transcription regulator): Activated
- MRTFA Activation z-score (transcription regulator): −3.84
- MRTFA Predicted Activation State (transcription regulator): Inhibited
- MRTFB Activation z-score (transcription regulator): −4.734
- MRTFB Predicted Activation State (transcription regulator): Inhibited
- MTPN Activation z-score (transcription regulator): −2.942
- MTPN Predicted Activation State (transcription regulator): Inhibited
- MYCN Activation z-score (transcription regulator): 4.584
- MYCN Predicted Activation State (transcription regulator): Activated
- Msx3 Activation z-score (transcription regulator): −2
- Msx3 Predicted Activation State (transcription regulator): Inhibited
- NCOA3 Activation z-score (transcription regulator): −2.143
- NCOA3 Predicted Activation State (transcription regulator): Inhibited
- NEUROG1 Activation z-score (transcription regulator): 3
- NEUROG1 Predicted Activation State (transcription regulator): Activated
- NFE2L2 Activation z-score (transcription regulator): 3.389
- NFE2L2 Predicted Activation State (transcription regulator): Activated
- NFKB1 Activation z-score (transcription regulator): −3.239
- NFKB1 Predicted Activation State (transcription regulator): Inhibited
- NRIP1 Activation z-score (transcription regulator): −2.267
- NRIP1 Predicted Activation State (transcription regulator): Inhibited
- PAX7 Activation z-score (transcription regulator): −2.883
- PAX7 Predicted Activation State (transcription regulator): Inhibited
- PCGF2 Activation z-score (transcription regulator): 2
- PCGF2 Predicted Activation State (transcription regulator): Activated
- PDX1 Activation z-score (transcription regulator): −2.958
- PDX1 Predicted Activation State (transcription regulator): Inhibited
- PITX2 Activation z-score (transcription regulator): 3.976
- PITX2 Predicted Activation State (transcription regulator): Activated
- PPARGC1A Activation z-score (transcription regulator): 8.123
- PPARGC1A Predicted Activation State (transcription regulator): Activated
- PPARGC1B Activation z-score (transcription regulator): 2.664
- PPARGC1B Predicted Activation State (transcription regulator): Activated
- PRDM1 Activation z-score (transcription regulator): 2.281
- PRDM1 Predicted Activation State (transcription regulator): Activated
- RB1 Activation z-score (transcription regulator): 4.435
- RB1 Predicted Activation State (transcription regulator): Activated
- REL Activation z-score (transcription regulator): −2.451
- REL Predicted Activation State (transcription regulator): Inhibited
- RELA Activation z-score (transcription regulator): −4.344
- RELA Predicted Activation State (transcription regulator): Inhibited
- RUNX3 Activation z-score (transcription regulator): 3.355
- RUNX3 Predicted Activation State (transcription regulator): Activated
- SMAD2 Activation z-score (transcription regulator): −2.323
- SMAD2 Predicted Activation State (transcription regulator): Inhibited
- SMAD3 Activation z-score (transcription regulator): −2.952
- SMAD3 Predicted Activation State (transcription regulator): Inhibited
- SMAD4 Activation z-score (transcription regulator): −2.417
- SMAD4 Predicted Activation State (transcription regulator): Inhibited
- SMAD7 Activation z-score (transcription regulator): 3.504
- SMAD7 Predicted Activation State (transcription regulator): Activated
- SMARCA4 Activation z-score (transcription regulator): −3.211
- SMARCA4 Predicted Activation State (transcription regulator): Inhibited
- SMYD1 Activation z-score (transcription regulator): 2.213
- SMYD1 Predicted Activation State (transcription regulator): Activated
- SNAI1 Activation z-score (transcription regulator): −2.699
- SNAI1 Predicted Activation State (transcription regulator): Inhibited
- SOX4 Activation z-score (transcription regulator): −2.397
- SOX4 Predicted Activation State (transcription regulator): Inhibited
- SP1 Activation z-score (transcription regulator): −2.444
- SP1 Predicted Activation State (transcription regulator): Inhibited
- SPDEF Activation z-score (transcription regulator): 4.415
- SPDEF Predicted Activation State (transcription regulator): Activated
- SPI1 Activation z-score (transcription regulator): −3.51
- SPI1 Predicted Activation State (transcription regulator): Inhibited
- SPIB Activation z-score (transcription regulator): −2.933
- SPIB Predicted Activation State (transcription regulator): Inhibited
- SPZ1 Activation z-score (transcription regulator): −2.022
- SPZ1 Predicted Activation State (transcription regulator): Inhibited
- SREBF2 Activation z-score (transcription regulator): 2.277
- SREBF2 Predicted Activation State (transcription regulator): Activated
- SRF Activation z-score (transcription regulator): −3.269
- SRF Predicted Activation State (transcription regulator): Inhibited
- SRSF2 Activation z-score (transcription regulator): 2.328
- SRSF2 Predicted Activation State (transcription regulator): Activated
- STAT1 Activation z-score (transcription regulator): −3.918
- STAT1 Predicted Activation State (transcription regulator): Inhibited
- STAT3 Activation z-score (transcription regulator): −4.716
- STAT3 Predicted Activation State (transcription regulator): Inhibited
- STAT4 Activation z-score (transcription regulator): −2.401
- STAT4 Predicted Activation State (transcription regulator): Inhibited
- TCF4 Activation z-score (transcription regulator): −2.836
- TCF4 Predicted Activation State (transcription regulator): Inhibited
- TCF7L1 Activation z-score (transcription regulator): 2.373
- TCF7L1 Predicted Activation State (transcription regulator): Activated
- TEAD1 Activation z-score (transcription regulator): −3.036
- TEAD1 Predicted Activation State (transcription regulator): Inhibited
- TEAD2 Activation z-score (transcription regulator): −3.153
- TEAD2 Predicted Activation State (transcription regulator): Inhibited
- TEAD3 Activation z-score (transcription regulator): −3.638
- TEAD3 Predicted Activation State (transcription regulator): Inhibited
- TEAD4 Activation z-score (transcription regulator): −2.143
- TEAD4 Predicted Activation State (transcription regulator): Inhibited
- TFAP2C Activation z-score (transcription regulator): 2.899
- TFAP2C Predicted Activation State (transcription regulator): Activated
- TFEB Activation z-score (transcription regulator): 2.587
- TFEB Predicted Activation State (transcription regulator): Activated
- TP53 Activation z-score (transcription regulator): −3.365
- TP53 Predicted Activation State (transcription regulator): Inhibited
- TWIST1 Activation z-score (transcription regulator): −2.987
- TWIST1 Predicted Activation State (transcription regulator): Inhibited
- Tcf7 Activation z-score (transcription regulator): −3.984
- Tcf7 Predicted Activation State (transcription regulator): Inhibited
- XBP1 Activation z-score (transcription regulator): 3.505
- XBP1 Predicted Activation State (transcription regulator): Activated
- YAP1 Activation z-score (transcription regulator): −4.255
- YAP1 Predicted Activation State (transcription regulator): Inhibited

— US20220304978A1, “INHIBITING MESANGIAL CELL ACTIVATION” (Chinook Therapeutics, Inc., priority 2019, published 2022)
